Test system: rat pressure ulcer model
Assay: Effect of compound A in rat pressure ulcer model
Assay type: in vivo
Details: for Number of days required for healing: 150 mg once a day until healing; for Number of days required for healing / wound area ratio: mean±standard error; for wound area ratio: 150 mg once a day
Method: The compound A was weighed in the required amount, and polyethylene glycol 400 (PEG400) was added to the compound to prepare liquids having final concentrations of the compound of 0.01, 0.1, and 1.0 w/v %. In order to prepare ointments having final concentrations of the compound of 0.005, 0.05, and 0.5 w/w %, PEG4000 melted by warming at 65° C. was added to the liquids, and the liquids were stirred until they solidified at room temperature to prepare ointments having concentrations of the compound of 0.005, 0.05, and 0.5 w/w %.
Pentobarbital sodium was intraperitoneally administered (50 mg/kg) to 8 weeks old Slc:SD rats, of which skins on the right third trochanter had been broadly depilated beforehand using an electric clipper and an electric shaver, 20 mg/kg of allobarbital was further intraperitoneally administered to anesthetize the rats, and the animals were fixed on wooden fixation plates in the prone position. Absorbent cotton was inserted between the femoral region and the fixation plate as a cushion, and a stainless steel bar (diameter 19 mm, length 50 cm) having a weight of 1.02 to 1.03 kg and attached with a rubber stopper (diameter 12 mm) was placed on the skin over the right third trochanter to give a pressure load (902.3 to 911.2 g/cm^2) for 24 hours^5). After 24 hours, the pressure load was eliminated, a 5% glucose solution was orally administered to the rats, and two days after the elimination of the pressure load, the necrotic skin was surgically removed under isoflurane anesthesia to prepare a pressure ulcer model. As for the methods of the experiments, Hidetoshi Hamamoto et al., Clinical Pharmacology and Therapy (Yakuri to Rinsho), 15:255-262, 2005, Effect of MRX-201 on Wound Healing Dermal Burns and Decubitus Ulcer in Rat was referred to.
After the preparation of the pressure ulcer model, the administration was performed once a day at a dose of 150 mg until healing was completed. The wound surface was cleaned with absorbent cotton dipped in physiological saline before the administration, and the ointment was applied to the whole wound surface with a spatula.
Wound area was measured once a day after the start of the administration of the test substance until healing was completed. By using the measured wound area, wound area ratio (%) based on the wound area before the start of the administration was calculated. The number of days of the period from the start of the administration to healing was calculated as number of days required for healing.
Homoscedasticity was examined by the Bartlett's method. When homoscedastic results were obtained, one-way layout analysis of variance was further performed, and when significant results were obtained, mean values were compared by the Tukey's method. When heteroscedastic results were obtained, Kruskal-Wallis H-test was performed, and when significant results were obtained, mean ranks were compared by the Tukey's method. For the Bartlett's method, one-way analysis of variance, and Kruskal-Wallis H-test, the statistical significance level was set at 5%, and for the Tukey's method, the statistical significance level was set at 5% and 1%.

`Cc1cc2c(CCc3sc(-c4ccc(C(F)(F)F)cc4)nc3C(C)C)noc2cc1OCC(=O)O` [compound A, [3-[2-[4-isopropyl-2-(4-trifluoromethyl)phenyl-5-thiazolyl]ethyl]-5-methyl-1,2-benzisoxazol-6-yl]oxyacetic acid] was tested, and the “number of the days required for healing compared with the vehicle-administered group” value (0.005% and 0.05% compound A-administered groups) was “significantly decreased”, the “Number of days required for healing” value (0.005% compound A ointment, n=10) was 20.1 ± 1.4 days and the wound area ratio (0.005% compound A ointment, day 1 of administration, n=10) was 100.0 ± 0.0%. It also gave a wound area ratio (0.005% compound A ointment, day 2 of administration, n=10) of 108.3 ± 3.1%, a wound area ratio (0.005% compound A ointment, day 3 of administration, n=10) of 108.9 ± 3.9% and a wound area ratio (0.005% compound A ointment, day 4 of administration, n=10) of 99.9 ± 3.5 %. The wound area ratio (0.005% compound A ointment, day 5 of administration, n=10) was 92.1 ± 3.7 %, the wound area ratio (0.005% compound A ointment, day 6 of administration, n=10) was 76.4 ± 5.5 % and the wound area ratio (0.005% compound A ointment, day 7 of administration, n=10) was 66.4 ± 4.7 %. It also gave a wound area ratio (0.005% compound A ointment, day 8 of administration, n=10) of 55.2 ± 4.8 %, a wound area ratio (0.005% compound A ointment, day 9 of administration, n=10) of 45.3 ± 4.3 % and a wound area ratio (0.005% compound A ointment, day 10 of administration, n=10) of 39.4 ± 4.1 %. It also gave a wound area ratio (0.005% compound A ointment, day 11 of administration, n=10) of 31.5 ± 3.3 %, a wound area ratio (0.005% compound A ointment, day 12 of administration, n=10) of 23.8 ± 2.4 % and a wound area ratio (0.005% compound A ointment, day 13 of administration, n=10) of 19.6 ± 2.3 %. For the same compound, the wound area ratio (0.005% compound A ointment, day 14 of administration, n=10) was 14.4 ± 2.5 %, the wound area ratio (0.005% compound A ointment, day 15 of administration, n=10) was 10.3 ± 2.1% and the wound area ratio (0.005% compound A ointment, day 16 of administration, n=10) was 7.1 ± 1.8 %. For the same compound, the wound area ratio (0.005% compound A ointment, day 17 of administration, rats except for the healed rats) was 4.4 ± 1.5 %, the wound area ratio (0.005% compound A ointment, day 18 of administration, rats except for the healed rats) was 4.9 ± 1.6^ % and the wound area ratio (0.005% compound A ointment, day 19 of administration, rats except for the healed rats) was 3.3 ± 1.5 %. For the same compound, the wound area ratio (0.005% compound A ointment, day 20 of administration, rats except for the healed rats) was 2.8 ± 1.5^ %, the “wound areas compared with the vehicle-administered group” value (0.005% compound A-administered group, from the day 4 of the administration) was “significantly smaller” and the “wound areas compared with the vehicle-administered group” value (0.05% and 0.5% compound A-administered groups, from the day 5 of the administration) was “significantly smaller”. The “Number of days required for healing” value (0.05% compound A ointment, n=10) was 19.7 ± 1.1 days, the wound area ratio (0.05% compound A ointment, day 1 of administration, n=10) was 100.0 ± 0.0% and the wound area ratio (0.05% compound A ointment, day 2 of administration, n=10) was 115.0 ± 2.8%. The wound area ratio (0.05% compound A ointment, day 3 of administration, n=10) was 113.6 ± 3.5%, the wound area ratio (0.05% compound A ointment, day 4 of administration, n=10) was 104.9 ± 3.1% and the wound area ratio (0.05% compound A ointment, day 5 of administration, n=10) was 95.1 ± 3.7 %. The wound area ratio (0.05% compound A ointment, day 6 of administration, n=10) was 84.4 ± 2.8%, the wound area ratio (0.05% compound A ointment, day 7 of administration, n=10) was 73.5 ± 2.7 % and the wound area ratio (0.05% compound A ointment, day 8 of administration, n=10) was 63.4 ± 3.1 %. It also gave a wound area ratio (0.05% compound A ointment, day 9 of administration, n=10) of 49.8 ± 4.2 %, a wound area ratio (0.05% compound A ointment, day 10 of administration, n=10) of 41.6 ± 3.9 % and a wound area ratio (0.05% compound A ointment, day 11 of administration, n=10) of 31.2 ± 3.1 %. For the same compound, the wound area ratio (0.05% compound A ointment, day 12 of administration, n=10) was 22.3 ± 3.6 %, the wound area ratio (0.05% compound A ointment, day 13 of administration, n=10) was 16.4 ± 4.0 % and the wound area ratio (0.05% compound A ointment, day 14 of administration, n=10) was 12.1 ± 3.7 %. The wound area ratio (0.05% compound A ointment, day 15 of administration, n=10) was 8.6 ± 3.2 %, the wound area ratio (0.05% compound A ointment, day 16 of administration, n=10) was 7.5 ± 3.3 % and the wound area ratio (0.05% compound A ointment, day 17 of administration, rats except for the healed rats) was 6.7 ± 3.2 %. The wound area ratio (0.05% compound A ointment, day 18 of administration, rats except for the healed rats) was 7.8 ± 3.8^ %, the wound area ratio (0.05% compound A ointment, day 19 of administration, rats except for the healed rats) was 5.4 ± 2.9^ % and the wound area ratio (0.05% compound A ointment, day 20 of administration, rats except for the healed rats) was 5.4 ± 3.2^ %. The “Number of days required for healing” value (0.5% compound A ointment, n=10) was 21.0 ± 1.2 days, the wound area ratio (0.5% compound A ointment, day 1 of administration, n=10) was 100.0 ± 0.0% and the wound area ratio (0.5% compound A ointment, day 2 of administration, n=10) was 119.6 ± 5.0%. The wound area ratio (0.5% compound A ointment, day 3 of administration, n=10) was 117.5 ± 5.0%, the wound area ratio (0.5% compound A ointment, day 4 of administration, n=10) was 109.5 ± 4.6% and the wound area ratio (0.5% compound A ointment, day 5 of administration, n=10) was 93.2 ± 4.3 %. For the same compound, the wound area ratio (0.5% compound A ointment, day 6 of administration, n=10) was 84.9 ± 4.3%, the wound area ratio (0.5% compound A ointment, day 7 of administration, n=10) was 77.0 ± 5.1% and the wound area ratio (0.5% compound A ointment, day 8 of administration, n=10) was 65.3 ± 4.4%. The wound area ratio (0.5% compound A ointment, day 9 of administration, n=10) was 56.0 ± 4.0%, the wound area ratio (0.5% compound A ointment, day 10 of administration, n=10) was 49.2 ± 3.9% and the wound area ratio (0.5% compound A ointment, day 11 of administration, n=10) was 39.7 ± 4.6%. It also gave a wound area ratio (0.5% compound A ointment, day 12 of administration, n=10) of 28.3 ± 3.4%, a wound area ratio (0.5% compound A ointment, day 13 of administration, n=10) of 19.6 ± 2.2 % and a wound area ratio (0.5% compound A ointment, day 14 of administration, n=10) of 15.5 ± 1.6 %. It also gave a wound area ratio (0.5% compound A ointment, day 15 of administration, n=10) of 8.0 ± 0.9 %, a wound area ratio (0.5% compound A ointment, day 16 of administration, n=10) of 5.6 ± 0.7 % and a wound area ratio (0.5% compound A ointment, day 17 of administration, rats except for the healed rats) of 3.7 ± 0.5 %. For the same compound, the wound area ratio (0.5% compound A ointment, day 18 of administration, rats except for the healed rats) was 2.2 ± 0.6 %, the wound area ratio (0.5% compound A ointment, day 19 of administration, rats except for the healed rats) was 2.2 ± 0.6 % and the wound area ratio (0.5% compound A ointment, day 20 of administration, rats except for the healed rats) was 1.6 ± 0.4 %. The exacerbation of wounds (from the day 1 to day 3 of the administration, a tendency) was “suppressed”.
